The assay concerns P388 leukemia ip, CD2F1 mice, survival T/C. Nature of the assay: NCI In Vivo Anticancer Drug Screen. Data for tumor model P388 Leukemia (intraperitoneal) in CD2F1 (CDF1) mice. To be noted: endpoint: median survival time, higher = longer survival. Summed up:
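Mice carrying the transplanted tumor received test compound or vehicle. Survival was recorded in each group, and the value is the treated-group measurement divided by that of the vehicle-treated control group.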

[1] abbreviates: dose: 50.0 mg/kg/injection, schedule: Q01DX005 (ip), vehicle: saline with Tween-80.
[2] abbreviates: dose: 100.0 mg/kg/injection, schedule: Q01DX005 (ip), vehicle: saline with Tween-80.
[3] abbreviates: dose: 200.0 mg/kg/injection, schedule: Q01DX005 (ip), vehicle: saline with Tween-80.
[4] abbreviates: dose: 100.0 mg/kg/injection, schedule: Q01DX009 (ip), vehicle: saline.
Where [5] appears, read: dose: 200.0 mg/kg/injection, schedule: Q01DX009 (ip), vehicle: saline.
Where [6] appears, read: dose: 50.0 mg/kg/injection, schedule: Q01DX005 (ip), vehicle: Klucel (hydroxypropylcellulose) (HPC).
[7] abbreviates: dose: 100.0 mg/kg/injection, schedule: Q01DX005 (ip), vehicle: Klucel (hydroxypropylcellulose) (HPC).
The mark [8] stands for this setting: dose: 200.0 mg/kg/injection, schedule: Q01DX005 (ip), vehicle: Klucel (hydroxypropylcellulose) (HPC).
The mark [9] stands for this setting: dose: 50.0 mg/kg/injection, schedule: Q01DX009 (ip), vehicle: Klucel (hydroxypropylcellulose) (HPC).
[10] abbreviates: dose: 100.0 mg/kg/injection, schedule: Q01DX009 (ip), vehicle: Klucel (hydroxypropylcellulose) (HPC).
Setting [11] is: dose: 200.0 mg/kg/injection, schedule: Q01DX009 (ip), vehicle: Klucel (hydroxypropylcellulose) (HPC).
[12] abbreviates: dose: 50.0 mg/kg/injection, schedule: Q01DX005 (ip), vehicle: saline.
Where [13] appears, read: dose: 60.0 mg/kg/injection, schedule: Q01DX005 (ip), vehicle: saline with Tween-80.
The mark [14] stands for this setting: dose: 120.0 mg/kg/injection, schedule: Q01DX005 (ip), vehicle: saline with Tween-80.
Where [15] appears, read: dose: 240.0 mg/kg/injection, schedule: Q01DX005 (ip), vehicle: saline with Tween-80.
The mark [16] stands for this setting: dose: 50.0 mg/kg/injection, schedule: Q01DX009 (ip), vehicle: saline with Tween-80.
The mark [17] stands for this setting: dose: 200.0 mg/kg/injection, schedule: Q01DX009 (ip), vehicle: saline with Tween-80.

Values joined by “and” are separate entries in the source; they are usually repeats but may differ in a detail not shown here. Identical values can stand only once. Toxic doses and inconclusive results are not listed.

On to `CC1=NN(C(=O)c2ccc(Cl)cc2)C(=O)C1N=Nc1ccc(S(=O)(=O)Nc2ccccn2)cc1` (centres undefined), for which the T/C is, setting by setting: under setting [1], 102 % of control; under setting [2], 94 % of control.
With `CC(C)[C@]12O[C@H]1[C@@H]1O[C@]13[C@]1(O[C@H]1C[C@H]1C4=C(C(=O)OC4)[C@@H](O)C[C@@]13C)[C@@H]2O`, the T/C (dose: 0.03 mg/kg/injection, schedule: Q01DX009 (ip), vehicle: saline + alcohol) is 100 % of control and 101 % of control and 119 % of control; the T/C (dose: 0.05 mg/kg/injection, schedule: Q01DX009 (ip), vehicle: saline + alcohol) was 117 % of control; the T/C (dose: 0.06 mg/kg/injection, schedule: Q01DX005 (ip), vehicle: saline + alcohol) is 110 % of control; the T/C (dose: 0.06 mg/kg/injection, schedule: Q01DX005 (iv), vehicle: saline + alcohol) was 107 % of control; the T/C (dose: 0.06 mg/kg/injection, schedule: Q01DX009 (ip), vehicle: saline + alcohol) is 117 % of control; the T/C (dose: 0.1 mg/kg/injection, schedule: Q01DX009 (ip), vehicle: saline + alcohol) was 124 % of control. For the same compound, the T/C was 122 % of control (dose: 0.13 mg/kg/injection, schedule: Q01DX005 (ip), vehicle: saline + alcohol); 108 % of control (dose: 0.13 mg/kg/injection, schedule: Q01DX005 (iv), vehicle: saline + alcohol); 108 % of control (dose: 0.25 mg/kg/injection, schedule: Q01DX005 (iv), vehicle: saline + alcohol); 157 % of control and 158 % of control (dose: 0.25 mg/kg/injection, schedule: Q01DX009 (ip), vehicle: saline + alcohol); 116 % of control (dose: 0.5 mg/kg/injection, schedule: Q01DX005 (iv), vehicle: saline + alcohol).
In the case of `SC1CCCN(Cc2ccccc2)C1` (centres undefined), the T/C runs as follows: under setting [1], 117 % of control; under setting [2], 108 % of control; under setting [3], 110 % of control.
As for `C/C(=N\O)C(O)c1ccccc1` (centres undefined), the T/C runs as follows: under setting [4], 88 % of control; under setting [5], 93 % of control; (dose: 400.0 mg/kg/injection, schedule: Q01DX009 (ip), vehicle: saline) 100 % of control.
Take `COc1cc(NC(C)=O)c2ncccc2c1NC(C)=O`: the T/C runs as follows: under setting [6], 99 % of control; under setting [7], 96 % of control; under setting [8], 87 % of control.
Turning to `O=C(CCSSc1ccccn1)ON1C(=O)CCC1=O`, the T/C reads like this: (dose: 100.0 mg/kg/injection, schedule: Q01DX001 (ip), vehicle: saline) 102 % of control; (dose: 200.0 mg/kg/injection, schedule: Q01DX001 (ip), vehicle: saline) 107 % of control; (dose: 400.0 mg/kg/injection, schedule: Q01DX001 (ip), vehicle: saline) 100 % of control.
For the compound `O=C1NC(=O)N(c2ccc(Cl)c(Cl)c2)C1=O`, the T/C runs as follows: under setting [9], 94 % of control; under setting [10], 93 % of control; under setting [11], 94 % of control.
As to `CNCCNc1ccc(NCCNC)c2c1C(=O)c1ccccc1C2=O`, the T/C was 183 % of control (dose: 2.0 mg/kg/injection, schedule: Q01DX009 (ip), vehicle: acid diluted with saline); 175 % of control (dose: 4.0 mg/kg/injection, schedule: Q01DX009 (ip), vehicle: acid diluted with saline); 175 % of control (dose: 8.0 mg/kg/injection, schedule: Q01DX009 (ip), vehicle: acid diluted with saline); 200 % of control (dose: 12.5 mg/kg/injection, schedule: Q01DX009 (ip), vehicle: distilled water + Tween-80); 86 % of control (dose: 16.0 mg/kg/injection, schedule: Q01DX009 (ip), vehicle: acid diluted with saline).
As for `CC1CN(C(=O)OCC23COC4(C)CCC(C)(OC2)N34)CC(C)O1` (centres undefined), the T/C reads like this: under setting [12], 100 % of control; (dose: 100.0 mg/kg/injection, schedule: Q01DX005 (ip), vehicle: saline) 100 % of control; (dose: 200.0 mg/kg/injection, schedule: Q01DX005 (ip), vehicle: saline) 100 % of control.
As to `CCOC(=O)C1n2c(=O)n(-c3ccc(Cl)cc3)c(=O)n21`, the T/C is 96 % of control under setting [6], 87 % of control under setting [7] and 92 % of control under setting [8].
As to `COc1c2occc2c(NC(=O)CCl)c2ccc(=O)oc12`, the T/C (dose: 100.0 mg/kg/injection, schedule: Q04DX002 (ip), vehicle: saline with Tween-80) is 100 % of control and the T/C (dose: 200.0 mg/kg/injection, schedule: Q04DX002 (ip), vehicle: saline with Tween-80) is 93 % of control.
As to `COC(=O)c1cccc2c([N+](=O)[O-])c(NC(C)=O)cc(C(=O)OC)c12`, the T/C reads like this: under setting [13], 100 % of control; under setting [14], 104 % of control; under setting [15], 100 % of control.
Turning to `Cc1nccn1CC(=O)c1ccccc1`, the T/C runs as follows: under setting [13], 104 % of control; under setting [14], 104 % of control.
Turning to `CCCC(O)(CCC)C1=NCCN1`, the T/C is, setting by setting: (dose: 12.5 mg/kg/injection, schedule: Q01DX005 (ip), vehicle: saline) 103 % of control; (dose: 25.0 mg/kg/injection, schedule: Q01DX005 (ip), vehicle: saline) 102 % of control; under setting [12], 99 % of control and 102 % of control.
As for `O=C1Nc2ccc(Cl)cc2C(c2ccccc2)=NC1O` (centres undefined), the T/C reads like this: (dose: 12.5 mg/kg/injection, schedule: Q01DX009 (ip), vehicle: Klucel (hydroxypropylcellulose) (HPC)) 97 % of control; (dose: 25.0 mg/kg/injection, schedule: Q01DX009 (ip), vehicle: Klucel (hydroxypropylcellulose) (HPC)) 97 % of control; under setting [9], 108 % of control; under setting [10], 89 % of control; under setting [11], 111 % of control; (dose: 400.0 mg/kg/injection, schedule: Q01DX009 (ip), vehicle: Klucel (hydroxypropylcellulose) (HPC)) 99 % of control.
Regarding `CC(=O)Nc1ccc(S(=O)(=O)N/N=c2/sc3ccccc3n2C)cc1`, the T/C under setting [13] was 100 % of control, the T/C under setting [14] was 92 % of control and the T/C under setting [15] was 95 % of control.
`O=C(O)CN(CC(=O)O)Cc1cc2c(cc1O)Oc1cc(O)c(CN(CC(=O)O)CC(=O)O)cc1C21OC(=O)c2ccccc21`: the T/C is 105 % of control under setting [16]; 101 % of control (dose: 100.0 mg/kg/injection, schedule: Q01DX009 (ip), vehicle: saline with Tween-80); 97 % of control under setting [17].
In the case of `CN(C)/C=N/c1c(C#N)c(-c2ccccc2)c(-c2ccccc2)n1-c1ccccc1`, the T/C runs as follows: under setting [16], 97 % of control; (dose: 50.0 mg/kg/injection, schedule: Q01DX009 (ip), vehicle: saline) 98 % of control; under setting [4], 93 % of control; under setting [17], 96 % of control; under setting [5], 87 % of control.
As for `CC(C)CC1N=C(NN=C(CCl)CCl)OP1(=O)NCCCCCCNP1(=O)OC(NN=C(CCl)CCl)=NC1CC(C)C` (centres undefined), the T/C (dose: 60.0 mg/kg/injection, schedule: Q01DX005 (ip), vehicle: Klucel (hydroxypropylcellulose) (HPC)) is 106 % of control.
Turning to `CC(=O)Nc1ccc(S(=O)(=O)NCCSSCCNS(=O)(=O)c2ccc(NC(C)=O)cc2)cc1`, the T/C is 102 % of control under setting [9], 94 % of control under setting [10] and 91 % of control under setting [11].
`COC(=O)/C=C/N(Cc1ccccc1)/N=N/N(/C=C/C(=O)OC)Cc1ccccc1`: the T/C (dose: 6.25 mg/kg/injection, schedule: Q01DX005 (ip), vehicle: saline with Tween-80) was 101 % of control; the T/C (dose: 12.5 mg/kg/injection, schedule: Q01DX005 (ip), vehicle: saline with Tween-80) is 95 % of control; the T/C (dose: 25.0 mg/kg/injection, schedule: Q01DX005 (ip), vehicle: saline with Tween-80) was 97 % of control; the T/C under setting [3] is 87 % of control.

These data come from PubChem BioAssay AID330 (DTP/NCI, 2004).
